Source: patent US11236122B2, “Triterpene amine derivatives” (DFH THERAPEUTICS, priority 2018, dated 2022)

Columns and labels:
[1] = system: panel of HIV-1 isolates in human PBMCs; assay: PBMC antiviral assay against a panel of HIV-1 isolates (RT activity); type: cell-based; details: Human immunodeficiency virus 1, PBMC
Method: Antiviral assays. To produce HIV-1 stocks, 293T cells were transfected with WT pNL4-3 or the SP1-V7A derivative and culture supernatants were collected 24 h post transfection. RT-normalized virus supernatants were used to infect MT-4 cells at room temperature for 30 min. Cells were then cultured in the presence of serial dilutions of compounds. At 4 d post-infection, the culture supernatants were subjected to RT assay to monitor viral replication. The 50% inhibitory concentrations (IC50s) were defined as compound concentrations that reduced RT levels to 50% those measured in the absence of inhibitor (DMSO only controls) using GraphPad Prism 6 software. The IC50s in primary peripheral blood mononuclear cells (PBMCs) were calculated with a multi-clade panel of HIV-1 isolates by Southern Research Institute (Frederick, Md.). The PBMCs were stimulated with phytohemagglutinin (PHA) and IL-2 prior to use in the antiviral assays.
Virus Isolates. Compound evaluation against a panel of HIV-1 isolates were performed by the Southern Research Institute (SRI). The viruses were chosen to include one isolate from each of the seven HIV-1 Group M envelope subtypes A, B, C, D, E, F, and G, as well as isolates from HIV-1 Groups O and N. In addition, various drug resistant HIV-1 isolates were included for evaluation. The HIV-1 isolates selected include CCR5-tropic and CXCR4-tropic isolates. Unless otherwise noted, all virus isolates were obtained from the NIH AIDS Research and Reference Reagent Program. Virus isolate 1022-48 was obtained from Dr. William A. Schief of Merck Research Laboratories. MDR769 and MDR807 were obtained from Dr. Thomas C. Merigan of Stanford University. A low passage stock of each virus was prepared using fresh human PBMCs and stored in liquid nitrogen. Pre-titered aliquots of each virus were removed from the freezer and thawed rapidly to rt in a biological safety cabinet immediately before use.
(§1) Human PBMC Preparation. Fresh human PBMCs were isolated from screened donors, seronegative for HIV and HBV (Biological Specialty Corporation, Colmar, Pa.). Cells were pelleted/washed 2-3 times by low speed centrifugation and resuspension in Dulbecco's phosphate buffered saline (PBS) to remove contaminating platelets. The leukophoresed blood was then diluted 1:1 with PBS and layered over 14 mL of Ficoll-Hypaque density gradient (Lymphocyte Separation Medium, Cell Grow #85-072-CL, density 1.078+/−0.002 g/mL) in a 50 mL centrifuge tube and then centrifuged for 30 min at 600×g. Banded PBMCs were gently aspirated from the resulting interface and subsequently washed twice with PBS by low speed centrifugation. After the final wash, cells were enumerated by trypan blue exclusion and re-suspended at 1×10^6 cells/mL in RPMI 1640 supplemented with 15% Fetal Bovine Serum (FBS), 2 mM L-glutamine, 100 U/mL penicillin, […] streptomycin, and 4 μg/mL Phytohemagglutinin (PHA; Sigma, St. Louis, Mo.; cat #L1668). The cells were allowed to incubate for 48-72 h at 37° C. After incubation, PBMCs were centrifuged and resuspended in RPMI 1640 with 15% FBS, L-glutamine, penicillin, streptomycin, non-essential amino acids (MEM/NEAA; Hyclone; cat #SH30238.01), and 20 U/mL recombinant human IL-2 (R&D Systems Inc., Minneapolis, Minn.; cat #202IL). PBMCs were maintained in this medium at a concentration of 1-2×10^6 cells/mL, with twice-weekly medium changes until they were used in the assay protocol. Monocytes-derived-macrophages were depleted from the culture as the result of adherence to the tissue culture flask.
PBMC Assay. For the standard PBMC assay, PHA stimulated cells from at least two normal donors were pooled (mixed together), diluted in fresh medium to a final concentration of 1×10^6 cells/mL, and plated in the interior wells of a 96 well round bottom microplate at 50 μL/well (5×10^4 cells/well) in a standard formate developed by the Infectious Disease Research Department of the SRI. […]

WT pNL4-3 = assay: CA-SP1 accumulation assay, WT NL4-3; type: cell-based, HIV-1; details: 10 nM compound, HeLa or 293T cells
Method: (§2) Cell culture, plasmids and transfections. The MT-4 T-cell line was maintained in RPMI-1640 medium supplemented with 10% (vol/vol) fetal bovine serum (FBS), 2 mM glutamine, 100 U/mL penicillin and 100 μg/mL streptomycin at 37° C. in a humidified 5% CO2 atmosphere. HeLa and 293T cells were maintained in Dulbecco's modified Eagle's medium (DMEM) supplemented with 5% (vol/vol) FBS, 2 mM glutamine, 100 U/mL penicillin and 100 μg/mL streptomycin. Molecular clones used in this study were WT pNL4-3 and the derivative encoding a Val-to-Ala mutation at SP1 residue 7, referred to as SP1-V7A. The MT-4 T-cell line was transfected the DEAE/dextran procedure; HeLa and 293T cells were transfected with linear polyethylenimine (L-PEI) or Lipofectamine 2000 (Invitrogen) as recommended by the supplier.
(§3) CA-SP1 accumulation assay. For CA-SP1 accumulation assays, HeLa or 293T cells were transfected with WT pNL4-3 or the SP1-V7A derivative. At 24 h post-transfection, cells were starved in Met/Cys-free medium for 30 min and metabolically labeled with [^35S]Met/Cys-Pro-mix (Amersham) for 2-3 h. Maturation inhibitors were maintained in the cultures throughout the transfection and labeling period. Viruses were collected by ultracentrifugation at 99,000×g for 45-60 min. Virus pellets were resuspended in Triton X-100 lysis buffer [300 mM NaCl, 50 mM Tris-HCl (pH 7.5), 0.5% Triton X-100, 10 mM iodoacetamide, and protease inhibitor cocktail tablets (Roche)]. CA and CA-SP1 proteins were separated on 13.5-15% polyacrylamide gels by SDS-polyacrylamide gel electrophoresis, exposed to a phosphorimager plate (Fuji) and quantified by Quantity One software (Bio-Rad).

in vitro = type: cell-based; details: human
Method: as §1
(§4) PBMC Assay. For the standard PBMC assay, PHA stimulated cells from at least two normal donors were pooled (mixed together), diluted in fresh medium to a final concentration of 1×10^6 cells/mL, and plated in the interior wells of a 96 well round bottom microplate at 50 μL/well (5×10^4 cells/well) in a standard formate developed by the Infectious Disease Research Department of the SRI. Pooling (mixing) of mononuclear cells from more than one donor was used to minimize the variability observed between individual donors, which results from quantitative and qualitative differences in HIV infection and overall response to the PHA and IL-2 of primary lymphocyte populations. Each plate contains virus control wells (cells plus virus) and experimental wells (drug plus cells plus virus). Test drug dilutions were prepared at a 2× concentration in microtiter tubes and 100 μL of each concentration was placed in appropriate wells using the standard format. 50 μL of a predetermined dilution of virus stock was placed in each test well (final MOI≈0.1). Separate plates were prepared identically without virus for drug cytotoxicity studies using an MTS assay system (described below; cytotoxicity plates also include compound control wells containing drug plus media without cells to control for colored compounds that affect the MTS assay). The PBMC cultures were maintained for seven days following infection at 37° C., 5% CO2. After this period, cell-free supernatant samples were collected for analysis of reverse transcriptase activity, and compound cytotoxicity was measured by addition of MTS to the separate cytotoxicity plates for determination of cell viability. Wells were also examined microscopically and any abnormalities were noted.
(§5) MTS Staining for PBMC Viability to Measure Cytotoxicity. At assay termination, the uninfected assay plates were stained with the soluble tetrazolium-based dye MTS (CellTiter 96 Reagent, Promega) to determine cell viability and quantify compound toxicity. MTS is metabolized by the mitochondria enzymes of metabolically active cells to yield a soluble formazan product, allowing the rapid quantitative analysis of cell viability and compound cytotoxicity. […] At termination of the assay, […] of MTS reagent was added per well and the microtiter plates were then incubated at 37° C., 5% CO2 to assess cell viability. […]

human PBMCs = assay: in vitro; type: cell-based; details: 7 days
Method: as §1, §4, §5

pNL4-3 SP1-V7A = assay: CA-SP1 accumulation assay, SP1-V7A derivative; type: cell-based, HIV-1; details: 10 nM compound, HeLa or 293T cells
Method: as §2, §3

C=C(C)[C@@H]1CC[C@]2(CCNCCN3CCN(Cc4cccc(F)c4)CC3)CC[C@]3(C)[C@H](CC[C@@H]4[C@@]5(C)CC[C@H](OC(=O)CC(C)(C)C(=O)O)C(C)(C)[C@@H]5CC[C@]43C)[C@@H]12 [Compound 51m, (3β)-17-[2-[[2-[4-(3-Fluorophenylmethyl)piperazin-1-yl]ethyl]amino]ethyl]-28-norlup-20(29)-en-3-ol, 3-(1-Hydrogen 2,2-Dimethylbutanedioate)]
IC50 ([1]; isolate 92RW009, PBMC): 27.9 nM | IC50 ([1]; isolate 92UG001, PBMC): 7.9 nM | IC50 ([1]; isolate 93BR020, PBMC): 8.4 nM | IC50 ([1]; isolate 93BR029, PBMC): 10.8 nM | IC50 ([1]; isolate 93IN101, PBMC): 21.5 nM | IC50 ([1]; isolate 99UGA07412MI, PBMC): 17.8 nM | IC50 ([1]; isolate BCF02, PBMC): 16.7 nM | IC50 ([1]; isolate CMU02, PBMC): 18.8 nM | IC50 ([1]; isolate JV1083, PBMC): > 1000 nM | % CA-SP1 Accumulation 10 nM NL4-3 (WT pNL4-3): 53.7% | CC50 at 7 days (in vitro): > 1000 nM | CC50 (human PBMCs): > 1000 nM | % CA-SP1 Accumulation 10 nM SP1 V7A (pNL4-3 SP1-V7A): 40.3 (3) %

C=C(C)[C@@H]1CC[C@]2(CCNCCN3CCN(Cc4ccc(Cl)cc4)CC3)CC[C@]3(C)[C@H](CC[C@@H]4[C@@]5(C)CC[C@H](OC(=O)CC(C)(C)C(=O)O)C(C)(C)[C@@H]5CC[C@]43C)[C@@H]12 [Compound 51n, (3β)-17-[2-[[2-[4-(4-Chlorophenylmethyl)piperazin-1-yl]ethyl]amino]ethyl]-28-norlup-20(29)-en-3-ol, 3-(1-Hydrogen 2,2-Dimethylbutanedioate)]
IC50 ([1]; isolate 92RW009, PBMC): 25.9 nM | IC50 ([1]; isolate 92UG001, PBMC): 5.3 nM | IC50 ([1]; isolate 93BR020, PBMC): 12.8 nM | IC50 ([1]; isolate 93BR029, PBMC): 18.4 nM | IC50 ([1]; isolate 93IN101, PBMC): 23.3 nM | IC50 ([1]; isolate 99UGA07412MI, PBMC): 31.4 nM | IC50 ([1]; isolate BCF02, PBMC): 22 nM | IC50 ([1]; isolate CMU02, PBMC): 17.3 nM | IC50 ([1]; isolate JV1083, PBMC): 311 nM | % CA-SP1 Accumulation 10 nM NL4-3 (WT pNL4-3): 46.9% | CC50 at 7 days (in vitro): > 1000 nM | CC50 (human PBMCs): > 1000 nM | % CA-SP1 Accumulation 10 nM SP1 V7A (pNL4-3 SP1-V7A): 38.2 (3) %

C=C(C)[C@@H]1CC[C@]2(CCNCCN3CCN(Cc4cccc(Cl)c4)CC3)CC[C@]3(C)[C@H](CC[C@@H]4[C@@]5(C)CC[C@H](OC(=O)CC(C)(C)C(=O)O)C(C)(C)[C@@H]5CC[C@]43C)[C@@H]12 [Compound 51o, (3β)-17-[2-[[2-[4-(3-Chlorophenylmethyl)piperazin-1-yl]ethyl]amino]ethyl]-28-norlup-20(29)-en-3-ol, 3-(1-Hydrogen 2,2-Dimethylbutanedioate)]
IC50 ([1]; isolate 92RW009, PBMC): 60.9 nM | IC50 ([1]; isolate 92UG001, PBMC): 8.1 nM | IC50 ([1]; isolate 93BR020, PBMC): 13.2 nM | IC50 ([1]; isolate 93BR029, PBMC): 14.8 nM | IC50 ([1]; isolate 93IN101, PBMC): 24.8 nM | IC50 ([1]; isolate 99UGA07412MI, PBMC): 33.2 nM | IC50 ([1]; isolate BCF02, PBMC): 38.1 nM | IC50 ([1]; isolate CMU02, PBMC): 25 nM | IC50 ([1]; isolate JV1083, PBMC): 220 nM | % CA-SP1 Accumulation 10 nM NL4-3 (WT pNL4-3): 55.7% | CC50 at 7 days (in vitro): > 1000 nM | CC50 (human PBMCs): > 1000 nM | % CA-SP1 Accumulation 10 nM SP1 V7A (pNL4-3 SP1-V7A): 39.4 (3) %

C=C(C)[C@@H]1CC[C@]2(CCNCCN3CCN(Cc4ccc5ccccc5c4)CC3)CC[C@]3(C)[C@H](CC[C@@H]4[C@@]5(C)CC[C@H](OC(=O)CC(C)(C)C(=O)O)C(C)(C)[C@@H]5CC[C@]43C)[C@@H]12 [Compound 51r, (3β)-17-[2-[[2-[4-(2-Naphthalenylmethyl)piperazin-1-yl]ethyl]amino]ethyl]-28-norlup-20(29)-en-3-ol, 3-(1-Hydrogen 2,2-Dimethylbutanedioate)]
IC50 ([1]; isolate 92RW009, PBMC): > 1000 nM | IC50 ([1]; isolate 92UG001, PBMC): 25.5 nM | IC50 ([1]; isolate 93BR020, PBMC): 26 nM | IC50 ([1]; isolate 93BR029, PBMC): 22.3 nM | IC50 ([1]; isolate 93IN101, PBMC): 207 nM | IC50 ([1]; isolate 99UGA07412MI, PBMC): 370 nM | IC50 ([1]; isolate BCF02, PBMC): 62.3 nM | IC50 ([1]; isolate CMU02, PBMC): > 1000 nM | IC50 ([1]; isolate JV1083, PBMC): > 1000 nM | % CA-SP1 Accumulation 10 nM NL4-3 (WT pNL4-3): 44.3% | CC50 at 7 days (in vitro): > 1000 nM | CC50 (human PBMCs): > 1000 nM | % CA-SP1 Accumulation 10 nM SP1 V7A (pNL4-3 SP1-V7A): 34.1 (3) %
